Source: patent US8148392B2, “2-indolyl imidazo [4,5-d] phenanthroline derivatives and their use in the treatment of cancer” (Lorus Therapeutics Inc., priority 2005, dated 2012)
“Also recorded” adds a separate entry of the source. Where two headings read alike, the source gives them in different places.

What was measured:
[1] = test system: MDA-MB-435 breast cancer cells; assay: XTT cell proliferation assay, MDA-MB-435; type: cell-based, human; settings: read-out: IC50 (cell growth inhibition)
Procedure: Cell growth inhibition IC50 (μM) by compounds of Formula I was tested on various cancer cell types by XTT cell proliferation assay. The growth inhibitory effects of the compounds of Formula I as shown below for the melanoma cell line SK-MEL-2 were reproducible by Lorus Therapeutics Inc.

[2] = test system: human lung NCI-H460 cells; assay: Large-cell lung carcinoma NCI-H460 xenograft model, tumour growth; type: in vivo, CD-1 female nude mice; settings: for tumour size and weight: Lutrol (i.p.), lipid-based (i.v.) or water-based (i.p.) formulations
Procedure: The ability of compounds of Formula I to inhibit large-cell lung tumour growth in vivo was tested by determining the efficacy of compound 3 in a xenograft model as described below. Compound 3 was tested as a lipid-based formulation having the following composition: distearoylphosphatidylethanolamine-polyethylene glycol 2000 (DSPE-PEG/5% mole) and egg phosphatidylcoline (ePC/95% mole). The formulation was prepared as follows: Stock solutions of compound 3 and lipid (ePC and DSPE-PEG) were prepared in DMF. Specific volumes of the stock solutions of compound 3 and lipid were then mixed in order to achieve a final lipid concentration of 25 mg/mL (ePC:DSPE-PEG=95:5 (mol %) and a compound 3 to total lipid ratio of 1:10 (w/w). The mixture was stirred for four hours, thoroughly dried under nitrogen and left overnight under vacuum. HEPES buffer saline (HBS 0.01 M, pH=7.4) warmed to 60° C. was then added in order to rehydrate the dried film. The solutions were vortexed, stirred for 48 hours at room temperature and sonicated for two and half hours. The formulation was then centrifuged at 1000 rpm for 5 minutes to remove any free compound 3.
CD-1 female nude mice (6-7 weeks, 7 mice per treatment group) were injected […] with human lung NCI-H460 cells (3×10^6 cells in 0.1 ml PBS) subcutaneously. Treatment of the mice with vehicle or compound 3 was initiated 5 days post-inoculation (size of tumours=20-40 mm^3) for 7-day cycles of five days followed by a 2 day break for the duration of the experiment (35 days). Mice were treated with 80 mg/kg/d for the first week followed by 40 mg/kg/d until the end of the experiment. The size of the tumours was measured over the course of the experiment using calipers, and the weight of the tumours was measured after the animals were sacrificed.
The ability of compounds 3, 5, and 7 to inhibit large-cell lung carcinoma cell growth in vivo was tested in the mouse xenograft model as described in Example 27. The compounds were tested as Lutrol formulations (administered i.p.), lipid-based formulations micelles (administered i.v.), or water-based formulations (administered i.p.). The vehicle controls included Lutrol control (administered i.p.), lipid micelle control (administered i.v.), and water control (administered i.p.). Lutrol formulations contained 15% Lutrol and 10% DMSO. The composition of the lipid-based formulations and preparation of same was as described in Example 27 above.

Cyclin D1 = Cyclin D1 mRNA in HT-29 tumour xenografts, RT-PCR; type: in vivo, CD-1 female nude mice; settings: HT-29 xenograft, versus vehicle
Procedure: The ability of compound 3 to modulate expression of Cyclin D1 was determined using the HT-29 colon tumour xenograft model as described in Example 26. The expression of Cyclin D1 mRNA was analyzed by real-time polymerase chain reaction as described in Example 30. […] The results of this experiment combined with the results described for the effect of compound 3 in vivo on KLF4 and P21 expression as described in Examples 30 and 31 are shown in FIG. 20.
(§1) Correlation between zinc-sensitive transcription factor MTF-1 and a cell cycle regulator Cyclin D1 expression in HT-29 colon cancer xenograft tissues is shown in FIG. 30. Based on the presence of putative MTF-1-binding DNA sequences in Cyclin D1 gene promoter region (shown in FIG. 30A), expression levels of MTF-1 and Cyclin D1 in xenograft tissues were examined by RT-PCR, using tissue RNA extract.
To examine the effect of compound 3-mediated changes in KLF4 and Cyclin D1 expressions in vivo, the expressions of respective genes in xenograft tissues of vehicle control (Lutrol) and compound 3-treated HT-29 colon cancer cell-transplanted mice were analyzed by RT-PCR (FIG. 46). Briefly, KLF4 and Cyclin D1 gene expression in HT-29 xenograft tissues after 14 days treatment with compound 3 was measured as follows. The mice subcutaneously transplanted with HT-29 cells were treated with vehicle control (administerd i.p.) or 100 mg/kg compound 3 (administered i.p.) for 14 days (n=6 in each group). Total RNA was extracted and gene expression level was determined by RT-PCR. KLF4 and Cyclin D1 gene expressions were normalized with β-actin gene expression in the same sample. […]
The tumor regression efficacy of compound 3 was assessed in compound 3-treated HT-29-transplanted athymic mice (FIG. 54A), and correlated with gene expressions of MTF-1, KLF4 and Cyclin D1 in HT-29 xenograft tissues (FIG. 54B). […] The tumor size was measured during the course of treatment using calipers (FIG. 54A). […] The tumor tissues were excised, frozen immediately and stored at −80° C. until RNA extraction and gene expression was analyzed by RT-PCR (FIG. 54B). […]

MTF-1 = MTF-1 mRNA in HT-29 tumour xenografts, RT-PCR; type: in vivo, CD-1 athymic nude mice; settings: HT-29 xenograft, versus vehicle
Procedure: as §1
The tumor regression efficacy of compound 3 was assessed in compound 3-treated HT-29-transplanted athymic mice (FIG. 54A), and correlated with gene expressions of MTF-1, KLF4 and Cyclin D1 in HT-29 xenograft tissues (FIG. 54B). CD-1 athymic nude mice (4 per group) were injected subcutaneously with HT-29 cells (3×10^6 cells in 0.1 mL PBS). At 5 days after tumor cell inoculation, the mice were intra-peritoneally injected with 200 μL vehicle control or 100 mg/kg compound 3, for 5 days followed by 10 days interval, for 2 cycles (day 5 to 9 as a first cycle injection and day 20 to 24 as a second cycle injection). The tumor size was measured during the course of treatment using calipers (FIG. 54A). The mice were sacrificed at 34 days after tumor cell inoculation. The tumor tissues were excised, frozen immediately and stored at −80° C. until RNA extraction and gene expression was analyzed by RT-PCR (FIG. 54B). […]

| SMILES | IC50 ([1]; Homo sapiens) | tumour size and weight [2] | Cyclin D1 expression in tumour xenografts (Cyclin D1) | MTF-1 expression in tumour xenografts (MTF-1) | IC50 [1] | tumour growth (size and weight) ([2]; lipid-based formulation, 80 mg/kg/d first week then 40 mg/kg/d, 35 days) | Cyclin D1 expression in tumour xenografts (Cyclin D1; listed as compound 3) | MTF-1 expression in tumour xenografts (MTF-1; listed as compound 3) |
| --- | --- | --- | --- | --- | --- | --- | --- | --- |
| Cc1[nH]c2ccc(F)cc2c1-c1nc2c3cccnc3c3ncccc3c2[nH]1 [Compound 7] | 200 nM | able to decrease the size (FIG. 16A) and weight (FIG. 16B) of tumours | decreased Cyclin D1 expression | Decreased MTF-1 expression |  |  |  |  |
| CCc1cccc2c(-c3nc4c5cccnc5c5ncccc5c4[nH]3)c(C(C)(C)C)[nH]c12 [Compound 64] |  |  |  |  | 500 nM |  |  |  |
| Cc1[nH]c2ccccc2c1-c1nc2c3cccnc3c3ncccc3c2[nH]1 [Compound 3] | 350 nM | able to decrease the size (FIG. 16A) and weight (FIG. 16B) of tumours | consistently reduced the expression of Cyclin D1 |  |  | able to inhibit large-cell lung tumour growth | decreased Cyclin D1 expression; also recorded: decrease in MTF-1 and Cyclin D1 gene expressions | Decreased MTF-1 expression; also recorded: decrease in MTF-1 and Cyclin D1 gene expressions |
